{
  "source": "patent US20220128542A1",
  "about": "“TREATMENT EFFICIENCY EVALUATION” (TX MEDIC AB, priority 2019, published 2022)",
  "test_system": "brain of rats subjected to severe traumatic brain injury (sTBI)",
  "assay": "Ingenuity pathway analysis of differentially regulated genes after sTBI (canonical pathways, diseases and molecular functions; Example 4)",
  "set-up": "species or system rat",
  "conditions": "2 days after TBI",
  "description": "Pathway analysis of the differentially regulated genes was carried out using the Ingenuity pathway analysis package. The analysis was performed with special reference to pathways and molecular processes and diseases associated with neurodegenerative disease, including dementia, Alzheimer's disease, ALS, TBI and stroke, and with scarring and fibrosis, including glaucoma and normal pressure hydrocephalus (NPH) after subarachnoid haemorrhage.",
  "key": {"[1]": {"conditions": "TBI + 1 mg/kg LMW-DS relative to control"}},
  "data": [
    {"substance": "sodium salt of dextran sulfate [LMW-DS]", "values": [
      {"measurement": "Abdominal cancer (disease/function), z score", "setting": "TBI + 1 mg/kg LMW-DS", "result": "−1.538"},
      {"measurement": "Abdominal carcinoma (disease/function), z score", "setting": "TBI + 1 mg/kg LMW-DS", "result": "−1.715"},
      {"measurement": "Abdominal neoplasm (disease/function), z score", "setting": "TBI + 1 mg/kg LMW-DS", "result": "−0.154"},
      {"measurement": "Activation of blood cells (disease/function), z score", "setting": "TBI + 1 mg/kg LMW-DS", "result": 0.086},
      {"measurement": "Activation of cells (disease/function), z score", "setting": "TBI + 1 mg/kg LMW-DS", "result": 0.836},
      {"measurement": "Activation of leukocytes (disease/function), z score", "setting": "TBI + 1 mg/kg LMW-DS", "result": 0.086},
      {"measurement": "Activation of lymphocytes (disease/function), z score", "setting": "TBI + 1 mg/kg LMW-DS", "result": "−1.158"},
      {"measurement": "Adhesion of tumor cell lines (disease/function), z score", "setting": "TBI + 1 mg/kg LMW-DS", "result": 2.074},
      {"measurement": "Apoptosis (disease/function), z score", "setting": "TBI + 1 mg/kg LMW-DS", "result": "−0.337"},
      {"measurement": "Apoptosis of muscle cells (disease/function), z score", "setting": "TBI + 1 mg/kg LMW-DS", "result": 0.041},
      {"measurement": "Behavior (disease/function), z score", "setting": "TBI + 1 mg/kg LMW-DS", "result": 1.334},
      {"measurement": "Binding of tumor cell lines (disease/function), z score", "setting": "TBI + 1 mg/kg LMW-DS", "result": 2.397},
      {"measurement": "Carcinoma (disease/function), z score", "setting": "TBI + 1 mg/kg LMW-DS", "result": "−0.127"},
      {"measurement": "Cell death (disease/function), z score", "setting": "TBI + 1 mg/kg LMW-DS", "result": "−0.793"},
      {"measurement": "Cell death of blood cells (disease/function), z score", "setting": "TBI + 1 mg/kg LMW-DS", "result": 1.082},
      {"measurement": "Cell death of immune cells (disease/function), z score", "setting": "TBI + 1 mg/kg LMW-DS", "result": 1.001},
      {"measurement": "Cell movement (disease/function), z score", "setting": "TBI + 1 mg/kg LMW-DS", "result": 1.948},
      {"measurement": "Cell movement of muscle cells (disease/function), z score", "setting": "TBI + 1 mg/kg LMW-DS", "result": "−0.26"},
      {"measurement": "Cell movement of vascular smooth muscle cells (disease/function), z score", "setting": "TBI + 1 mg/kg LMW-DS", "result": "−0.588"},
      {"measurement": "Cell proliferation of T lymphocytes (disease/function), z score", "setting": "TBI + 1 mg/kg LMW-DS", "result": "−1.097"},
      {"measurement": "Cellular homeostasis (disease/function), z score", "setting": "TBI + 1 mg/kg LMW-DS", "result": 0.19},
      {"measurement": "Development of connective tissue cells (disease/function), z score", "setting": "TBI + 1 mg/kg LMW-DS", "result": "−0.332"},
      {"measurement": "Differentiation of bone cells (disease/function), z score", "setting": "TBI + 1 mg/kg LMW-DS", "result": "−0.341"},
      {"measurement": "Differentiation of connective tissue cells (disease/function), z score", "setting": "TBI + 1 mg/kg LMW-DS", "result": 0.73},
      {"measurement": "Differentiation of hematopoietic progenitor cells (disease/function), z score", "setting": "TBI + 1 mg/kg LMW-DS", "result": 0.487},
      {"measurement": "Differentiation of osteoclasts (disease/function), z score", "setting": "TBI + 1 mg/kg LMW-DS", "result": "−0.223"},
      {"measurement": "Digestive organ tumor (disease/function), z score", "setting": "TBI + 1 mg/kg LMW-DS", "result": "−0.604"},
      {"measurement": "Experimentally-induced arthritis (disease/function), z score", "setting": "TBI + 1 mg/kg LMW-DS", "result": "−0.816"},
      {"measurement": "Extracranial solid tumor (disease/function), z score", "setting": "TBI + 1 mg/kg LMW-DS", "result": 0.056},
      {"measurement": "Genital tumor (disease/function), z score", "setting": "TBI + 1 mg/kg LMW-DS", "result": 0.13},
      {"measurement": "IL-1 Signaling canonical pathway, effect", "setting": "TBI + 1 mg/kg LMW-DS", "result": "Inhibited"},
      {"measurement": "Incidence of tumor (disease/function), z score", "setting": "TBI + 1 mg/kg LMW-DS", "result": "−1.131"},
      {"measurement": "Inflammation of absolute anatomical region (disease/function), z score", "setting": "TBI + 1 mg/kg LMW-DS", "result": "−1.359"},
      {"measurement": "Inflammation of body cavity (disease/function), z score", "setting": "TBI + 1 mg/kg LMW-DS", "result": "−1.757"},
      {"measurement": "Inflammation of joint (disease/function), z score", "setting": "TBI + 1 mg/kg LMW-DS", "result": "−0.053"},
      {"measurement": "Inflammation of organ (disease/function), z score", "setting": "TBI + 1 mg/kg LMW-DS", "result": "−1.295"},
      {"measurement": "Inflammatory response (disease/function), z score", "setting": "TBI + 1 mg/kg LMW-DS", "result": 1.159},
      {"measurement": "Interaction of mononuclear leukocytes (disease/function), z score", "setting": "TBI + 1 mg/kg LMW-DS", "result": 1.626},
      {"measurement": "Leukocyte migration (disease/function), z score", "setting": "TBI + 1 mg/kg LMW-DS", "result": 1.296},
      {"measurement": "Leukopoiesis (disease/function), z score", "setting": "TBI + 1 mg/kg LMW-DS", "result": 1.185},
      {"measurement": "Lymphopoiesis (disease/function), z score", "setting": "TBI + 1 mg/kg LMW-DS", "result": 0.583},
      {"measurement": "Malignant solid tumor (disease/function), z score", "setting": "TBI + 1 mg/kg LMW-DS", "result": "−0.562"},
      {"measurement": "Migration of cells (disease/function), z score", "setting": "TBI + 1 mg/kg LMW-DS", "result": 2.093},
      {"measurement": "Necrosis (disease/function), z score", "setting": "TBI + 1 mg/kg LMW-DS", "result": "−0.361"},
      {"measurement": "Non-hematologic malignant neoplasm (disease/function), z score", "setting": "TBI + 1 mg/kg LMW-DS", "result": "−0.243"},
      {"measurement": "Osteoarthritis Pathway canonical pathway, effect", "setting": "TBI + 1 mg/kg LMW-DS", "result": "Inhibited"},
      {"measurement": "Pelvic tumor (disease/function), z score", "setting": "TBI + 1 mg/kg LMW-DS", "result": "−0.651"},
      {"measurement": "Proliferation of blood cells (disease/function), z score", "setting": "TBI + 1 mg/kg LMW-DS", "result": "−1.083"},
      {"measurement": "Proliferation of lymphatic system cells (disease/function), z score", "setting": "TBI + 1 mg/kg LMW-DS", "result": "−1.112"},
      {"measurement": "Proliferation of lymphocytes (disease/function), z score", "setting": "TBI + 1 mg/kg LMW-DS", "result": "−0.852"},
      {"measurement": "Quantity of blood cells (disease/function), z score", "setting": "TBI + 1 mg/kg LMW-DS", "result": "−1.479"},
      {"measurement": "Quantity of bone (disease/function), z score", "setting": "TBI + 1 mg/kg LMW-DS", "result": "−1.985"},
      {"measurement": "Quantity of cells (disease/function), z score", "setting": "TBI + 1 mg/kg LMW-DS", "result": "−0.765"},
      {"measurement": "Quantity of connective tissue cells (disease/function), z score", "setting": "TBI + 1 mg/kg LMW-DS", "result": 0.637},
      {"measurement": "Quantity of leukocytes (disease/function), z score", "setting": "TBI + 1 mg/kg LMW-DS", "result": "−1.163"},
      {"measurement": "Quantity of lymphatic system cells (disease/function), z score", "setting": "TBI + 1 mg/kg LMW-DS", "result": "−0.701"},
      {"measurement": "Quantity of phagocytes (disease/function), z score", "setting": "TBI + 1 mg/kg LMW-DS", "result": "−2.061"},
      {"measurement": "Rheumatic Disease (disease/function), z score", "setting": "TBI + 1 mg/kg LMW-DS", "result": "−0.053"},
      {"measurement": "Role of NFAT in Regulation of the Immune Response canonical pathway, effect", "setting": "TBI + 1 mg/kg LMW-DS", "result": "Activated"},
      {"measurement": "Solid tumor (disease/function), z score", "setting": "TBI + 1 mg/kg LMW-DS", "result": "−0.186"},
      {"measurement": "Survival of organism (disease/function), z score", "setting": "TBI + 1 mg/kg LMW-DS", "result": "−0.095"},
      {"measurement": "Synthesis of hormone (disease/function), z score", "setting": "TBI + 1 mg/kg LMW-DS", "result": 0.977},
      {"measurement": "Thrombus (disease/function), z score", "setting": "TBI + 1 mg/kg LMW-DS", "result": 1},
      {"measurement": "Transcription of RNA (disease/function), z score", "setting": "TBI + 1 mg/kg LMW-DS", "result": 1.519},
      {"measurement": "Transport of molecule (disease/function), z score", "setting": "TBI + 1 mg/kg LMW-DS", "result": 2.421},
      {"measurement": "IL-1 Signaling canonical pathway, z score", "setting": "[1]", "result": "−1"},
      {"measurement": "Osteoarthritis Pathway canonical pathway, z score", "setting": "[1]", "result": "−1.342"},
      {"measurement": "Role of NFAT in Regulation of the Immune Response canonical pathway, z score", "setting": "[1]", "result": 0.378},
      {"measurement": "Abdominal cancer (disease/function), z score", "setting": "TBI + 5 mg/kg LMW-DS", "result": "−2.553"},
      {"measurement": "Abdominal carcinoma (disease/function), z score", "setting": "TBI + 5 mg/kg LMW-DS", "result": "−2.631"},
      {"measurement": "Abdominal neoplasm (disease/function), z score", "setting": "TBI + 5 mg/kg LMW-DS", "result": "−0.927"},
      {"measurement": "Adrenomedullin Signaling pathway canonical pathway, effect", "setting": "TBI + 5 mg/kg LMW-DS", "result": "Inhibited"}
    ]}
  ]
}
